Test results from patent US20130345218A1 (Vertex Pharmaceuticals Incorporated, priority 2010, published 2013).
Like-named read-outs stand apart in the source and are kept apart here.

How the values were obtained:
[1] = system: influenza A virus (A/PR/8/34) minus-strand viral RNA; assay: microbe, parasite or virus in culture; assay type: cell-based
[2] = system: influenza A virus (A/PR/8/34); assay: microbe, parasite or virus in culture; assay type: cell-based; conditions: MDCK cells
[3] = system: influenza infection; assay: Influenza therapeutic mouse model (survival, body weight, whole body plethysmography); assay type: in vivo; conditions: Balb/c mice, dosing @ 48 hours post infection with 30 mg/kg BID X 10 days
[4] = Influenza A virus, PR/8, mean EC50 (mean all), viral RNA by bDNA, read-out: bDNA EC50
[5] = Influenza A virus, PR/8, MDCK, 72 h, mean IC50 (mean all), A/PR/8/34, 72 hours, read-out: Flu, MDCK IC50

Compound	EC50 [1, 4]	IC50 [2, 5]	also measured
O=C(O)[C@H]1C2CCC(CC2)[C@@H]1Nc1nc(-c2c[nH]c3ncc(F)cc23)c(F)cc1F [Compound I-28, (2S,3S)-3-((3,5-difluoro-6-(5-fluoro-1H-pyrrolo[2,3-b]pyridin-3-yl)pyridin-2-yl)amino)bicyclo[2.2.2]octane-2-carboxylic acid]	< 3.3 µM	< 3.3 µM	EC50 ([1]; Influenza A virus, PR/8, bDNA assay, read-out: EC50): 0.005 µM; IC50 ([2]; Influenza A virus, PR/8, MDCK, CPE assay, A/PR/8/34, read-out: IC50): 0.005 µM; Percent Weight Loss (Day 8) ([3]; post challenge day 8): 24.8%; Percent Survival ([3]; scored for 21 days): 100%; WBP (Penh; Day 6) ([3]; whole body plethysmography): 1.84
CC[C@]1(C(=O)O)CCCC[C@@H]1Nc1ncc(C#N)c(-c2c[nH]c3ncc(C(F)(F)F)cc23)n1 [Compound I-8, (1S,2S)-2-((5-cyano-4-(5-(trifluoromethyl)-1H-pyrrolo[2,3-b]pyridin-3-yl)pyrimidin-2-yl)amino)-1-ethylcyclohexanecarboxylic acid]	< 3.3 µM	< 3.3 µM	–
O=C(O)[C@@H]1C2CCC(CC2)[C@H]1Nc1cnnc(-c2c[nH]c3ncc(F)cc23)n1 [Compound I-45]	> 3.3 µM	≥ 3.3 µM	–
C[C@@H]1CCN(C(=O)N[C@@H]2CCC[C@H](Nc3nc(-c4c[nH]c5ncc(F)cc45)c(F)cc3F)C2)C1 [Compound I-16, (R)—N-((1R,3S)-3-((3,5-difluoro-6-(5-fluoro-1H-pyrrolo[2,3-b]pyridin-3-yl)-pyridin-2-yl)amino)cyclohexyl)-3-methylpyrrolidine-1-carboxamide]	< 3.3 µM	< 3.3 µM	–
N#Cc1cc(F)c(N[C@H]2CCC[C@@H](NC(=O)N3CCOCC3)C2)nc1-c1c[nH]c2ncc(F)cc12 [Compound I-12, N-((1R,3S)-3-((5-cyano-3-fluoro-6-(5-fluoro-1H-pyrrolo[2,3-b]pyridin-3-yl)pyridin-2-yl)amino)cyclohexyl)morpholine-4-carboxamide]	< 3.3 µM	< 3.3 µM	–
O=C(O)[C@@H]1C2CCC(CC2)[C@H]1Nc1cc(C(F)(F)F)cc(-c2c[nH]c3ncc(F)cc23)n1 [Compound I-41]	< 3.3 µM	< 3.3 µM	–
O=C(O)[C@H]1C2CCC(CC2)[C@@H]1Nc1cc(-c2c[nH]c3ncc(F)cc23)ncc1F (racemic) [Compound I-50, (+/−)-(2,3)-trans-3-((5-fluoro-2-(5-fluoro-1H-pyrrolo[2,3-b]pyridin-3-yl)pyridin-4-yl)amino)bicyclo[2.2.2]octane-2-carboxylic acid]	< 3.3 µM	< 3.3 µM	–
O=C(O)[C@H]1C2CCC(CC2)[C@@H]1Nc1nc(-c2c[nH]c3ncc(Cl)cc23)c(F)cc1F [Compound I-34, (2S,3S)-3-((6-(5-chloro-1H-pyrrolo[2,3-b]pyridin-3-yl)-3,5-difluoropyridin-2-yl)amino)-bicyclo[2.2.2]octane-2-carboxylic acid]	< 3.3 µM	< 3.3 µM	–
O=C(N[C@@H]1CCC[C@H](Nc2nc(-c3c[nH]c4ncc(F)cc34)c(C(F)(F)F)cc2F)C1)N1CCOCC1 [Compound I-22, N-[(1R,3S)-3-[[3-fluoro-6-(5-fluoro-1H-pyrrolo[2,3-b]pyridin-3-yl)-5-(trifluoro-methyl)-2-pyridyl]amino]cyclohexyl]morpholine-4-carboxamide]	< 3.3 µM	< 3.3 µM	–
N#Cc1cnc(N[C@H]2CCCC[C@@H]2C(=O)O)nc1-c1c[nH]c2ncc(C(F)(F)F)cc12 [Compound I-7, (1S,2S)-2-((5-cyano-4-(5-(trifluoromethyl)-1H-pyrrolo[2,3-b]pyridin-3-yl)pyrimidin-2-yl)amino)cyclohexanecarboxylic acid]	< 3.3 µM	< 3.3 µM	–
N#Cc1cnc(N[C@H]2CCC[C@@H](C(=O)O)C2)nc1-c1c[nH]c2ncc(C(F)(F)F)cc12 [Compound I-4, (1R,3S)-3-((5-cyano-4-(5-(trifluoromethyl)-1H-pyrrolo[2,3-b]pyridin-3-yl)pyrimidin-2-yl)amino)cyclohexanecarboxylic acid]	< 3.3 µM	< 3.3 µM	–
N#Cc1cnc(N[C@@H]2C3CCC(CC3)[C@H]2C(=O)O)nc1-c1c[nH]c2ncc(C(F)(F)F)cc12 (racemic) [Compound I-39, (+/−)-trans 3-((5-cyano-4-(5-(trifluoromethyl)-1H-pyrrolo[2,3-b]pyridin-3-yl)pyrimidin-2-yl)amino)bicyclo[2.2.2]octane-2-carboxylic acid]	< 3.3 µM	< 3.3 µM	–
O=C(N[C@@H]1CCC[C@H](Nc2nc(-c3c[nH]c4ncc(F)cc34)c(F)cc2F)C1)c1csc(Cl)c1 [Compound I-48, 5-chloro-N-((1R,3S)-3-((3,5-difluoro-6-(5-fluoro-1H-pyrrolo[2,3-b]pyridin-3-yl)pyridin-2-yl)amino)cyclohexyl)thiophene-3-carboxamide]	< 3.3 µM	< 3.3 µM	–
COC(=O)[C@@H]1C2CCC(CC2)[C@H]1Nc1nc(-c2c[nH]c3ncc(Cl)cc23)c(F)cc1F [Compound I-31]	> 3.3 µM	≥ 3.3 µM	–
N#Cc1cc(F)c(NC2C3CCC(CC3)C2C(=O)O)cc1-c1c[nH]c2ncc(F)cc12 (racemic) [Compound I-51, (+/−)-3-((4-cyano-2-fluoro-5-(5-fluoro-1H-pyrrolo[2,3-b]pyridin-3-yl)phenyl)amino)bicyclo[2.2.2]octane-2-carboxylic acid]	< 3.3 µM	< 3.3 µM	–
O=C(O)C1C2CCC(CC2)C1Nc1cnnc(-c2c[nH]c3ncc(F)cc23)n1 (racemic) [Compound I-42, (+/−)-3-[[3-(5-fluoro-1H-pyrrolo[2,3-b]pyridin-3-yl)-1,2,4-triazin-5-yl]amino]bicyclo[2.2.2]octane-2-carboxylic acid]	< 3.3 µM	< 3.3 µM	–
O=C(O)[C@H]1C2CCC(CC2)[C@@H]1Nc1ncc(F)c(-c2c[nH]c3ncc(F)cc23)n1 (racemic) [Compound I-29, (+/−) trans-3-((5-fluoro-4-(5-fluoro-1H-pyrrolo[2,3-b]pyridin-3-yl)pyrimidin-2-yl)amino)bicyclo[2.2.2]octane-2-carboxylic acid]	< 3.3 µM	< 3.3 µM	–
3-(2-(5-fluoro-1H-pyrrolo[2,3-b]pyridin-3-yl)pyridin-4-ylamino)bicyclo[2.2.2]octane-2-carboxylic acid [Compound I-49]	–	–	EC50 ([1]; mean EC50 (mean all), viral RNA by bDNA, read-out: bDNA EC50): < 3.3 µM; IC50 ([2]; mean IC50 (mean all), A/PR/8/34, 72 hours, read-out: Flu, MDCK IC50): < 3.3 µM
